Results from US5496947A, “Quinolone carboxylic acid derivatives” (Dong Wha Pharmaceutical Industrial Co., Ltd., priority 1994, dated 1996).
Like-named read-outs stand apart in the source and are kept apart here.

Assays:
[1] = Pharmacokinetic properties in ICR mouse, oral and subcutaneous, Bio-Assay (Agar well method); format: in vivo; conditions: 40 mg/kg, average of four tests; for AUC / Cmax / Tmax / half-life / bioavailability: blood; for dose excreted: urine, read-out: Urine Recovery
Experimental: The pharmacokinetic properties are tested by orally administrating and subcutaneously injecting a test compound and a substance for control to a ICR Mouse with 22 g±10% weight, drawing blood after 10, 20, 30, 45, 60, 90, 120, 150, 180 and […] and analyzed by Bio-Assay (Agar well method).

[2] = test system: Haemophilus influenza ATCC 35056; experiment: MIC, 2-fold dilution method in micro-well plate, H. influenzae; format: cell-based; conditions: H. influenzae ATCC35056, 37° C.; read-out: Minimum Inhibitory Concentration
Method in brief: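 MIC by 2-fold broth microdilution; compounds as hydrochloride salts in sterile water (10 mg/ml stock). Overnight BHI culture inoculated at about (10^5-10^6)/2 cfu/ml final; MIC read after cultivation at 37° C.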

[3] = test system: Serratia marcescens ATCC 8100; experiment: MIC, 2-fold dilution method in micro-well plate, S. marcescens; format: cell-based
Method in brief: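 Broth microdilution (2-fold series) of hydrochloride salts in water; S. marcescens from overnight BHI culture at 37 °C inoculated to about (10^5-10^6)/2 cfu/ml. MIC read after cultivation at 37 °C.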

[4] = test system: Enterobacter cloacae; experiment: MIC, 2-fold dilution method in micro-well plate, E. cloacae; format: cell-based; conditions: read-out: Minimum Inhibitory Concentration
[5] = test system: Shigella flexneri ATCC 12022; experiment: MIC, 2-fold dilution method in micro-well plate, S. flexneri; format: cell-based; conditions: S. flexneri ATCC12022, 37° C., read-out: Minimum Inhibitory Concentration
Method in brief: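 Two-fold broth dilution in microwell plates; compounds as hydrochloride salts in sterile water. Overnight BHI-broth culture at 37 °C used as inoculum, giving about (10^5–10^6)/2 cfu/ml per well. MIC read after cultivation at 37 °C.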

[6] = test system: Shigella sonnei ATCC 25931; experiment: MIC, 2-fold dilution method in micro-well plate, S. sonnei; format: cell-based; conditions: S. sonnei ATCC25931, 37° C., read-out: Minimum Inhibitory Concentration
Method in brief: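 Broth microdilution with 2-fold serial dilutions of compounds as hydrochloride salts in water. Overnight BHI culture of S. sonnei at 37° C added to give about (10^5-10^6)/2 cfu/ml per well. MIC read after incubation at 37° C.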

[7] = test system: Proteus vulgaris ATCC 13315; experiment: MIC, 2-fold dilution method in micro-well plate, P. vulgaris; format: cell-based
Method in brief: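 Two-fold broth dilution in micro-well plates; compounds tested as hydrochloride salts in water. Bacteria from overnight BHI broth culture at 37 °C inoculated to about (10^5–10^6)/2 cfu/ml final; MIC read after incubation at 37 °C.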

[8] = test system: Salmonella typhimurium ATCC 14028; experiment: MIC, 2-fold dilution method in micro-well plate, S. typhimurium; format: cell-based; conditions: Salmonella enterica, read-out: Minimum Inhibitory Concentration
Method in brief: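 Twofold broth microdilution with overnight BHI culture at 37 °C; inoculum about (10^5-10^6)/2 cfu/ml in wells. Compounds tested as hydrochloride salts from 10 mg/ml aqueous stock; MIC read after incubation at 37 °C.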

[9] = test system: Citrobacter freundii ATCC 8090; experiment: MIC, 2-fold dilution method in micro-well plate, C. freundii; format: cell-based
Method in brief: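 Broth 2-fold microdilution; compounds tested as hydrochloride salts in sterile water. Inoculum from overnight BHI broth culture at 37° C., final about (10^5-10^6)/2 cfu/ml per well; MIC read after incubation at 37° C.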

[10] = test system: Acinetobacter calcoaceticus; experiment: MIC, 2-fold dilution method in micro-well plate, A. calcoaceticus; format: cell-based
[11] = test system: Pseudomonas aeruginosa ATCC 27853; experiment: MIC, 2-fold dilution method in micro-well plate, P. aeruginosa; format: cell-based; conditions: P. aerugirnosa ATCC27853, 37° C., read-out: Minimum Inhibitory Concentration
Method in brief: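 MIC was recorded after 37° C incubation of bacteria with serial two-fold dilutions of compound. Bacteria came from an overnight 37° C BHI culture; the final inoculum was about (10^5-10^6)/2 cfu/ml. Compounds were tested as hydrochloride salts diluted in sterile water from a 10 mg/ml stock.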

[12] = test system: Streptococcus faecalis ATCC 19433; experiment: MIC, 2-fold dilution method in micro-well plate, S. faecalis ATCC 19433; format: cell-based; conditions: Enterococcus faecalis; S. faecalis ATCC19433, 37° C.; read-out: Minimum Inhibitory Concentration
Method in brief: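 Broth microdilution (2-fold series) with test compounds as hydrochloride salts in sterile water; overnight BHI culture at 37 °C inoculated to about (10^5-10^6)/2 cfu/ml per well. MIC read after incubation at 37 °C.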

[13] = test system: Streptococcus pneumoniae ATCC 6303; experiment: MIC, 2-fold dilution method in micro-well plate, S. pneumoniae; format: cell-based; conditions: S. pneuinoniae ATCC6303, 37° C., read-out: Minimum Inhibitory Concentration
Method in brief: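 MIC by 2-fold serial microdilution of compounds as hydrochloride salts in water, against a BHI-grown overnight culture. Final inoculum was about (10^5–10^6)/2 cfu/ml. Plates were incubated at 37° C before the minimum inhibitory concentration was read.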

[14] = test system: Streptococcus pyrogens ATCC 19615; experiment: MIC, 2-fold dilution method in micro-well plate, S. pyrogens; format: cell-based; conditions: S. pyrogenes ATCC19615, 37° C., read-out: Minimum Inhibitory Concentration
Method in brief: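 Inoculum from overnight 37° C brain-heart infusion culture gave roughly (10^5-10^6)/2 cfu/mL per well against two-fold serial dilutions of hydrochloride-salt compound in water. Lowest concentration inhibiting growth after 37° C incubation taken as MIC.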

[15] = test system: Enterobacter aerogenes ATCC 13048; experiment: MIC, 2-fold dilution method in micro-well plate, E. aerogenes; format: cell-based; conditions: Klebsiella aerogenes
Method in brief: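 Two-fold broth microdilution of hydrochloride salts dissolved in sterile water (10 mg/ml stock). Inoculum from overnight BHI culture at 37° C, about (10^5–10^6)/2 cfu/ml final in well. MIC read after incubation at 37° C.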

[16] = test system: Escherichia coli ATCC 25922; experiment: MIC, 2-fold dilution method in micro-well plate, E. coli; format: cell-based
Method in brief: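 Broth two-fold microdilution of hydrochloride salts in water against E. coli ATCC 25922 grown overnight in BHI at 37° C. Final inoculum about (10^5 -10^6)/2 cfu/ml; after incubation at 37° C, MIC was recorded.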

[17] = test system: Klebsiella pneumoniae ATCC 13883; experiment: MIC, 2-fold dilution method in micro-well plate, K. pneumoniae; format: cell-based
Method in brief: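 Two-fold broth dilution in micro-wells of compound as hydrochloride salt in water. Overnight BHI culture at 37 °C inoculated to about (10^5–10^6)/2 cfu/ml final. MIC read after incubation at 37 °C.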

[18] = test system: Streptococcus faecalis ATCC 29212; experiment: MIC, 2-fold dilution method in micro-well plate, S. faecalis ATCC 29212; format: cell-based; conditions: Enterococcus faecalis; S. faecalis ATCC29212, 37° C.; read-out: Minimum Inhibitory Concentration
Method in brief: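 Compounds were tested as hydrochloride salts by 2-fold serial dilution in water in micro-well plates. Final inoculum was about (10^5-10^6)/2 cfu/ml from overnight BHI broth culture. MIC was read after culture at 37° C.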

[19] = LD50, oral, mice; conditions: mouse, in vivo
[20] = S. marcescens ATCC8100, 37° C., read-out: Minimum Inhibitory Concentration
[21] = E. cloacae ATCC23355 (as in tables), 37° C.
[22] = P. vulgaris ATCC13315, 37° C., read-out: Minimum Inhibitory Concentration
[23] = ATCC8090, read-out: Minimum Inhibitory Concentration
[24] = E. aerogenes ATCC13048, 37° C., read-out: Minimum Inhibitory Concentration
[25] = ATCC13315, read-out: Minimum Inhibitory Concentration
[26] = ATCC13048, read-out: Minimum Inhibitory Concentration
[27] = ATCC25922, read-out: Minimum Inhibitory Concentration
[28] = ATCC13883, read-out: Minimum Inhibitory Concentration
[29] = S. typhisurium ATCC14028, 37° C.

Compound | AUC ([1]; sc, S.C) [ng·h/mL] | Cmax ([1]; sc, S.C) [ng/mL] | Tmax ([1]; sc, S.C) [h] | half-life ([1]; sc, S.C) [h] | dose excreted ([1]; po, P.O) [%] | dose excreted ([1]; sc, S.C) [%] | MIC [2] [µg/mL] | MIC [3, 20] [µg/mL] | MIC [5] [µg/mL] | MIC [6] [µg/mL] | MIC [9, 23] [µg/mL] | MIC [10, 23] [µg/mL] | MIC [11] [µg/mL] | MIC [12] [µg/mL] | MIC [13] [µg/mL] | MIC [14] [µg/mL] | MIC [18] [µg/mL] | AUC ([1]; po, P.O) [ng·h/mL] | Cmax ([1]; po, P.O) [ng/mL] | Tmax ([1]; po, P.O) [h] | further results
Cc1c(F)c(N2CCNC(C)C2)cc2c1c(=O)c(C(=O)O)cn2-c1ccc(F)cn1.Cl (stereo not shown) [Example 29, 5-methyl-7-(3-methyl-1-piperazinyl)-1-(5-fluoro-2-pyridyl)-6-fluoro-1,4-dihydro-4-oxoquinoline-3-carboxylic acid hydrochloride] | 32600 | 8340 | 1.25 | 2.31 | 9.35 | 12.8 | 0.625 | 1.25 | 0.625 | 0.625 | 0.625 | 0.625 | 1.25 | 5 | 10 | 10 | 5 | – | – | – | MIC [4, 21]: 0.313 µg/mL; MIC [7, 22]: 1.25 µg/mL; MIC [8]: 0.625 µg/mL; MIC [15, 24]: 0.313 µg/mL; MIC ([16]; E. coli ATCC25922, 37° C., read-out: Minimum Inhibitory Concentration): 1.25 µg/mL; MIC ([17]; K. pneumoniae ATCC13883, 37° C., read-out: Minimum Inhibitory Concentration): 1.25 µg/mL
Cc1c(F)c(N2CCN(C)CC2)cc2c1c(=O)c(C(=O)O)cn2-c1ccc(F)cn1.Cl [Example 28, 5-methyl-7-(4-methyl-1-piperazinyl)-1-(5-fluoro-2-pyridyl)-6-fluoro-1,4-dihydro-4-oxoquinoline-3-carboxylic acid hydrochloride] | 76100 | 6940 | 1 | 7.26 | 25.2 | 13.4 | 0.313 | – | 0.625 | 1.25 | – | 1.25 | 1.25 | 10 | 10 | 10 | 5 | 62400 | 6360 | 0.87 | bioavailability ([1]; po, P.O): 81.3%; half-life ([1]; po, P.O): 7.57 h; MIC ([3]; ATCC8100, read-out: Minimum Inhibitory Concentration): 1.25 µg/mL; MIC [4]: 0.625 µg/mL; MIC [7, 25]: 0.625 µg/mL; MIC [8]: 1.25 µg/mL; MIC ([9]; C. freundii ATCC8090, 37° C., read-out: Minimum Inhibitory Concentration): 2.5 µg/mL; MIC [15, 26]: 0.625 µg/mL; MIC [16, 27]: 1.25 µg/mL; MIC [17, 28]: 1.25 µg/mL
CN1CCN(c2nc3c(cc2F)c(=O)c(C(=O)O)cn3-c2ccc(F)cn2)CC1.Cl [Example 13, 1-(5-fluoro-2-pyridyl)-6-fluoro-7-(4-methyl-1-piperazinyl)-1,4-dihydro-4-oxo-1,8-naphthyridine-3-carboxylic acid hydrochloride] | 55500 | 8000 | 0.81 | 11.5 | 19.6 | 30.8 | 0.625 | 0.313 | 0.156 | 0.156 | 0.156 | – | 1.25 | 5 | 2.5 | 5 | 5 | 41000 | 11500 | 1.12 | bioavailability ([1]; po, P.O): 74%; half-life ([1]; po, P.O): 8.07 h; LD50 [19]: ~1000 mg/kg; MIC [4, 21]: 0.313 µg/mL; MIC [7, 25]: 0.625 µg/mL; MIC [8, 29]: 0.313 µg/mL; MIC ([10]; A. calcoaceticus ATCC8090 (as in tables), 37° C., read-out: Minimum Inhibitory Concentration): 0.313 µg/mL; MIC [15, 26]: 0.625 µg/mL; MIC [16, 27]: 0.156 µg/mL; MIC [17, 28]: 0.625 µg/mL
CN1CCN(c2cc3c(cc2F)c(=O)c(C(=O)O)cn3-c2ccc(F)cn2)CC1.Cl [Example 18, 1-(5-fluoro-2-pyridyl)-6-fluoro-7-(4-methyl-1-piperazinyl)-1,4-dihydro-4-oxoquinoline-3-carboxylic acid hydrochloride] | 63400 | 19600 | 1 | 3.15 | 28.1 | 39.9 | 0.625 | 1.25 | 0.625 | 0.625 | 0.625 | 0.625 | 1.25 | 5 | 5 | 5 | 2.5 | 42200 | 9180 | 0.94 | bioavailability ([1]; po, P.O): 68.6%; half-life ([1]; po, P.O): 3.44 h; LD50 [19]: > 3000 mg/kg; MIC [4]: 0.625 µg/mL; MIC [7, 22]: 0.313 µg/mL; MIC [8, 29]: 1.25 µg/mL; MIC [15, 24]: 0.25 µg/mL; MIC [16, 27]: 0.625 µg/mL; MIC [17, 28]: 0.625 µg/mL
